This is an account of results in patent US4160845A, “Fungicidal N-(haloaliphaticthio)halovinylsulfonamides” (Chevron Research Company, priority 1976, dated 1979).

Some results are limits rather than exact numbers.

The first assay deals with Fusarium moniloforma. The experiment in a line: Mycelial inhibition test, Fusarium moniloforma. The class given is cell-based. The conditions noted are these: paper strips on potato dextrose agar, 25° C., 24 hours.
Take `CC(C)N(SC(Cl)(Cl)Cl)S(=O)(=O)C(Cl)=C(Cl)Cl` [Compound 4]: the “Mycelia Inhibition, micrograms/cm for 99% control, F” value is given as > 1.7 micrograms/cm.

For `O=S(=O)(Nc1ccc(Cl)c(Cl)c1)C(Cl)=C(Cl)Cl` [Compound 21], the “Mycelia Inhibition, micrograms/cm for 99% control, F” value is reported as > 1.7 micrograms/cm.

`O=S(=O)(Nc1ccccc1)C(Cl)=C(Cl)Cl` [Compound 16]: the “Mycelia Inhibition, micrograms/cm for 99% control, F” value was > 1.7 micrograms/cm.

Regarding `Cc1ccc(N(SC(Cl)(Cl)Cl)S(=O)(=O)C(Cl)=C(Cl)Cl)cc1` [Compound 11], the “Mycelia Inhibition, micrograms/cm for 99% control, F” value is > 1.7 micrograms/cm.

Take `O=S(=O)(NC1CCCCC1)C(Cl)=C(Cl)Cl` [Compound 15]: the “Mycelia Inhibition, micrograms/cm for 99% control, F” value is > 1.7 micrograms/cm.

Turning to `Cc1ccc(NS(=O)(=O)C(Cl)=C(Cl)Cl)cc1` [Compound 18], the “Mycelia Inhibition, micrograms/cm for 99% control, F” value is > 1.7 micrograms/cm.

As for `CC(C)NS(=O)(=O)C(Cl)=C(Cl)Cl` [Compound 14], the “Mycelia Inhibition, micrograms/cm for 99% control, F” value is recorded as > 1.7 micrograms/cm.

Regarding `CN(SC(Cl)(Cl)Cl)S(=O)(=O)C(Cl)=C(Cl)Cl` [Compound 1, N-methyl-N-(trichloromethylthio)trichlorovinylsulfonamide], the “Mycelia Inhibition, micrograms/cm for 99% control, F” value amounted to 1.7 micrograms/cm.

`Cc1cccc(C)c1NS(=O)(=O)C(Cl)=C(Cl)Cl` [Compound 17]: the “Mycelia Inhibition, micrograms/cm for 99% control, F” value is on record as > 1.7 micrograms/cm.

Regarding `CNS(=O)(=O)C(Cl)=C(Cl)Cl` [Compound 13], the “Mycelia Inhibition, micrograms/cm for 99% control, F” value was > 1.7 micrograms/cm.

As to `O=S(=O)(Nc1ccc(Cl)cc1)C(Cl)=C(Cl)Cl` [Compound 19, N-(p-chlorophenyl)trichlorovinylsulfonamide], the “Mycelia Inhibition, micrograms/cm for 99% control, F” value is listed as > 1.7 micrograms/cm.

As to `Cc1cc(Sc2ccccc2)ccc1NS(=O)(=O)C(Cl)=C(Cl)Cl` [Compound 20], the “Mycelia Inhibition, micrograms/cm for 99% control, F” value is recorded as > 1.7 micrograms/cm.

For the compound `O=S(=O)(C(Cl)=C(Cl)Cl)N(SC(Cl)(Cl)Cl)c1ccccc1` [Compound 7, N-phenyl-N-(trichloromethylthio)trichlorovinylsulfonamide], the “Mycelia Inhibition, micrograms/cm for 99% control, F” value is on record as > 1.7 micrograms/cm.

On to `O=S(=O)(C(Cl)=C(Cl)Cl)N(SC(Cl)(Cl)Cl)C1CCCCC1` [Compound 5], for which the “Mycelia Inhibition, micrograms/cm for 99% control, F” value was > 1.7 micrograms/cm.

As to `Cc1cccc(C)c1N(SC(Cl)(Cl)Cl)S(=O)(=O)C(Cl)=C(Cl)Cl` [Compound 9], the “Mycelia Inhibition, micrograms/cm for 99% control, F” value is recorded as > 1.7 micrograms/cm.

In the next assay the test system is Aspergillus niger. The experiment in a line: Mycelial inhibition test, Aspergillus niger. The class given is cell-based. Conditions: paper strips on potato dextrose agar, 25° C., 24 hours.
For `CC(C)N(SC(Cl)(Cl)Cl)S(=O)(=O)C(Cl)=C(Cl)Cl` [Compound 4], the “Mycelia Inhibition, micrograms/cm for 99% control, A” value is recorded as 0.68 micrograms/cm.

Consider `O=S(=O)(Nc1ccc(Cl)c(Cl)c1)C(Cl)=C(Cl)Cl` [Compound 21], for which the “Mycelia Inhibition, micrograms/cm for 99% control, A” value was > 1.7 micrograms/cm.

In the case of `O=S(=O)(Nc1ccccc1)C(Cl)=C(Cl)Cl` [Compound 16], the “Mycelia Inhibition, micrograms/cm for 99% control, A” value was > 1.7 micrograms/cm.

Take `Cc1ccc(N(SC(Cl)(Cl)Cl)S(=O)(=O)C(Cl)=C(Cl)Cl)cc1` [Compound 11]: the “Mycelia Inhibition, micrograms/cm for 99% control, A” value was > 1.7 micrograms/cm.

For the compound `O=S(=O)(NC1CCCCC1)C(Cl)=C(Cl)Cl` [Compound 15], the “Mycelia Inhibition, micrograms/cm for 99% control, A” value is reported as > 1.7 micrograms/cm.

As to `Cc1ccc(NS(=O)(=O)C(Cl)=C(Cl)Cl)cc1` [Compound 18], the “Mycelia Inhibition, micrograms/cm for 99% control, A” value is recorded as > 1.7 micrograms/cm.

For the compound `CC(C)NS(=O)(=O)C(Cl)=C(Cl)Cl` [Compound 14], the “Mycelia Inhibition, micrograms/cm for 99% control, A” value is > 1.7 micrograms/cm.

On to `CN(SC(Cl)(Cl)Cl)S(=O)(=O)C(Cl)=C(Cl)Cl` [Compound 1, N-methyl-N-(trichloromethylthio)trichlorovinylsulfonamide], for which the “Mycelia Inhibition, micrograms/cm for 99% control, A” value was 0.42 micrograms/cm.

As to `Cc1cccc(C)c1NS(=O)(=O)C(Cl)=C(Cl)Cl` [Compound 17], the “Mycelia Inhibition, micrograms/cm for 99% control, A” value is on record as > 1.7 micrograms/cm.

With `CNS(=O)(=O)C(Cl)=C(Cl)Cl` [Compound 13], the “Mycelia Inhibition, micrograms/cm for 99% control, A” value is > 1.7 micrograms/cm.

With `O=S(=O)(Nc1ccc(Cl)cc1)C(Cl)=C(Cl)Cl` [Compound 19, N-(p-chlorophenyl)trichlorovinylsulfonamide], the “Mycelia Inhibition, micrograms/cm for 99% control, A” value was > 1.7 micrograms/cm.

With `Cc1cc(Sc2ccccc2)ccc1NS(=O)(=O)C(Cl)=C(Cl)Cl` [Compound 20], the “Mycelia Inhibition, micrograms/cm for 99% control, A” value is > 1.7 micrograms/cm.

Turning to `O=S(=O)(C(Cl)=C(Cl)Cl)N(SC(Cl)(Cl)Cl)c1ccccc1` [Compound 7, N-phenyl-N-(trichloromethylthio)trichlorovinylsulfonamide], the “Mycelia Inhibition, micrograms/cm for 99% control, A” value was > 1.5 micrograms/cm.

On to `O=S(=O)(C(Cl)=C(Cl)Cl)N(SC(Cl)(Cl)Cl)C1CCCCC1` [Compound 5], for which the “Mycelia Inhibition, micrograms/cm for 99% control, A” value is recorded as > 1.7 micrograms/cm.

In the case of `Cc1cccc(C)c1N(SC(Cl)(Cl)Cl)S(=O)(=O)C(Cl)=C(Cl)Cl` [Compound 9], the “Mycelia Inhibition, micrograms/cm for 99% control, A” value is given as > 1.7 micrograms/cm.

In a further assay the test system is Rhizoctonia solani. The experiment in a line: Mycelial inhibition test, Rhizoctonia solani. The class given is cell-based. The conditions noted are these: paper strips on potato dextrose agar, 25° C., 24 hours.
Regarding `CC(C)N(SC(Cl)(Cl)Cl)S(=O)(=O)C(Cl)=C(Cl)Cl` [Compound 4], the “Mycelia Inhibition, micrograms/cm for 99% control, R” value is recorded as 0.19 micrograms/cm.

For `O=S(=O)(Nc1ccc(Cl)c(Cl)c1)C(Cl)=C(Cl)Cl` [Compound 21], the “Mycelia Inhibition, micrograms/cm for 99% control, R” value was > 1.7 micrograms/cm.

Consider `O=S(=O)(Nc1ccccc1)C(Cl)=C(Cl)Cl` [Compound 16], for which the “Mycelia Inhibition, micrograms/cm for 99% control, R” value is given as > 1.7 micrograms/cm.

For the compound `Cc1ccc(N(SC(Cl)(Cl)Cl)S(=O)(=O)C(Cl)=C(Cl)Cl)cc1` [Compound 11], the “Mycelia Inhibition, micrograms/cm for 99% control, R” value was > 1.7 micrograms/cm.

As to `O=S(=O)(NC1CCCCC1)C(Cl)=C(Cl)Cl` [Compound 15], the “Mycelia Inhibition, micrograms/cm for 99% control, R” value is on record as > 1.7 micrograms/cm.

Turning to `Cc1ccc(NS(=O)(=O)C(Cl)=C(Cl)Cl)cc1` [Compound 18], the “Mycelia Inhibition, micrograms/cm for 99% control, R” value was > 1.7 micrograms/cm.

As for `CC(C)NS(=O)(=O)C(Cl)=C(Cl)Cl` [Compound 14], the “Mycelia Inhibition, micrograms/cm for 99% control, R” value is reported as > 1.7 micrograms/cm.

Regarding `CN(SC(Cl)(Cl)Cl)S(=O)(=O)C(Cl)=C(Cl)Cl` [Compound 1, N-methyl-N-(trichloromethylthio)trichlorovinylsulfonamide], the “Mycelia Inhibition, micrograms/cm for 99% control, R” value turned out to be 0.18 micrograms/cm.

For the compound `Cc1cccc(C)c1NS(=O)(=O)C(Cl)=C(Cl)Cl` [Compound 17], the “Mycelia Inhibition, micrograms/cm for 99% control, R” value was > 1.7 micrograms/cm.

As for `CNS(=O)(=O)C(Cl)=C(Cl)Cl` [Compound 13], the “Mycelia Inhibition, micrograms/cm for 99% control, R” value is > 1.7 micrograms/cm.

For the compound `O=S(=O)(Nc1ccc(Cl)cc1)C(Cl)=C(Cl)Cl` [Compound 19, N-(p-chlorophenyl)trichlorovinylsulfonamide], the “Mycelia Inhibition, micrograms/cm for 99% control, R” value is on record as > 1.7 micrograms/cm.

On to `Cc1cc(Sc2ccccc2)ccc1NS(=O)(=O)C(Cl)=C(Cl)Cl` [Compound 20], for which the “Mycelia Inhibition, micrograms/cm for 99% control, R” value is given as > 1.7 micrograms/cm.

Regarding `O=S(=O)(C(Cl)=C(Cl)Cl)N(SC(Cl)(Cl)Cl)c1ccccc1` [Compound 7, N-phenyl-N-(trichloromethylthio)trichlorovinylsulfonamide], the “Mycelia Inhibition, micrograms/cm for 99% control, R” value is recorded as > 1.7 micrograms/cm.

Turning to `O=S(=O)(C(Cl)=C(Cl)Cl)N(SC(Cl)(Cl)Cl)C1CCCCC1` [Compound 5], the “Mycelia Inhibition, micrograms/cm for 99% control, R” value turned out to be 1.1 micrograms/cm.

Regarding `Cc1cccc(C)c1N(SC(Cl)(Cl)Cl)S(=O)(=O)C(Cl)=C(Cl)Cl` [Compound 9], the “Mycelia Inhibition, micrograms/cm for 99% control, R” value was 0.33 micrograms/cm.
